In patent US6949381B2, “Immortalized human skin cell lines and novel serum-free medium useful for the production thereof” (Nestec S.A., priority 1995, dated 2005):

Legend:
Type in all cases: cell-based, Human
collagenase (type I) = test: Collagenase (type I) expression after phorbol ester treatment; settings: immortalized keratinocytes treated with phorbol esters
normal keratinocytes = test: Keratinocyte growth in serum-free media (cell count, FIG. 1); settings: serum free medium
Description: FIG. 1 compares the growth (in terms of cell number) of non-immortalized DKO-NR keratinocytes in three different media, i.e., NR-3, epinephrine-supplemented modified MCDB 153 and MCDB 153 after 6 days.
• 1) Characterization of Keratinocytes Growth in Serum-free Media: primary cell cultures were cultivated in modified MCDB 153 [Boyce et al., J. Tissue Cult. Meth., 9:83-93 (1985); and Pittlekow et al., J. Invest. Dermatol., 86:410-417, 1986] and NR-3 media.
FIG. 1 comprises cell growth in NR-3 and epinephrine-supplemented modified MCDB 153 (keratinocyte growth medium) after 6 days. The modified MCDB 153 medium refers to modified MCDB 153. Keratinocytes were harvested in trypsin/EDTA (0.05%/0.01%) and counted by using a hemocytometer. […] In particular, the results shown in Table 2 compare the growth of keratinocytes in coated and uncoated culture plates. 100,000 keratinocytes were seeded on 3.5 cm plates containing NR-3 medium.

[1] = tested on: melanocytes (DM2-NR, normal); test: Induction/inhibition of melanin synthesis in melanocytes; settings: T-Ag expressing melanocyte lines (especially DM2-NR), comparable to normal cells
Description: The melanocytes were treated with the melanogensis inducers tyrosin and theophylline and the melanogenesis inhibitor kojic acid.

| Compound | induction/inhibition of melanogenesis [1] | other results |
| --- | --- | --- |
| CCCCCCCCCCCCCC(=O)O[C@@H]1[C@@H](C)[C@@]2(O)[C@@H](C=C(CO)C[C@]3(O)C(=O)C(C)=C[C@@H]23)[C@@H]2C(C)(C)[C@]12OC(C)=O [PMA, phorbol-12-myristate-13-acetate] | – | collagenase (type I) expression (collagenase (type I)): increase of collagenase (type I) expression |
| CNC[C@H](O)c1ccc(O)c(O)c1 [epinephrine] | – | growth of normal keratinocytes (normal keratinocytes): strong growth factor of normal keratinocytes |
| O=c1cc(CO)occ1O [kojic acid] | dose dependent | – |
| Cn1c(=O)c2[nH]cnc2n(C)c1=O [theophylline] | dose dependent | – |
| N[C@@H](Cc1ccc(O)cc1)C(=O)O [tyrosin] | dose dependent | – |
